# Source: PubChem BioAssay AID1963597 (National Center for Advancing Translational Sciences (NCATS), 2024)
# Residues, ends and D or L forms follow the SMILES beside them.
# System: human liver microsomes, metabolic stability half-life
# Experiment: NCATS Human Liver Microsomal (HLM) Stability Profiling
# Details: higher = more stable; screened at 1 µM (by protocol)
# Outline: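 Substrate depletion (in vitro t1/2): 1 µM compound with 0.5 mg/mL microsomes and NADPH regenerating system, phosphate buffer pH 7.4, 37 °C. Sampled at 0, 5, 10, 15, 30, 60 min into cold acetonitrile with albendazole internal standard for MS quantification.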
row,SMILES,half-life [min]
1,COc1cc2c(cc1OC)CN(C(=O)[C@@H](NCc1ccncc1)C(C)(C)C)CC2,2.24
2,CC#C[C@@H](CC(=O)O)c1ccc(OCc2ccc(CN3CCC4(C=Cc5ccccc54)CC3)s2)cc1,25.1
3,[O-][n+]1cccc(CO)c1,> 120
4,CC(C)(O)c1ccccc1CC[C@H](SCC1(CC(=O)O)CC1)c1cccc(/C=C/c2ccc3ccc(Cl)cc3n2)c1,36.5
5,CCc1ccc(-n2c(SCc3cccc(F)c3)nc3[nH]ncc3c2=O)cc1,80.5
6,C#CCN(Cc1cc2c(=O)n(C)c(CN3CCN(C)CC3)nc2cc1Cl)c1ccc(C(=O)NCc2cccnc2)cc1,4.83
7,O=C1c2ccccc2S(=O)(=O)N1CCCCN1CCN(c2ncccn2)CC1,24.5
8,Cc1cccc(C)c1OCC(C)N (stereo not drawn),114
9,CC[C@@H](C)Nc1cc(C(=O)NC2CC3CC[C@@H](C2)N3c2ccc(C(=O)C3CC3)cn2)c(C)cc1C(N)=O (stereo partly drawn),> 120
10,Cc1ccc(NC(=O)Cn2c(=O)n(CCC(=O)N3CCc4ccccc4C3)c(=O)c3ccccc32)c(C)c1,1.41
11,COc1ccc(CCC(C)=O)cc1,> 120
12,CCOc1ccc(-c2cc(NC(=O)Nc3ccccc3Cl)c(C(=O)OC)s2)cc1,47.8
13,C[C@H]1[C@H](/C=C/c2ccc(-c3ccccc3C#N)cn2)[C@@H]2[C@@H](C)OC(=O)[C@@H]2C[C@@H]1C,15.3
14,O=C1CC[C@H](C(=O)N2CCCCC2)N1,> 120
15,CC(C)c1c(NC(=O)Nc2ccc(Cl)cc2)c(=O)n(-c2ccccc2)n1C,> 120
16,Cc1ccc(S(=O)(=O)Nc2nc3n(n2)C(c2ccc(F)cc2)C=C(c2ccccc2)N3)cc1 (stereo not drawn),> 120
17,C1COC(NC(C2CC2)C2CC2)=N1,> 120
18,O=C(C1CCCCC1)N1CC(=O)N2CCCc3ccccc3C2C1 (stereo not drawn),20.8
19,Cc1ccc(Cl)cc1N1CCN(C(=O)c2cn(C3CCCCC3)c(=O)c3c2c2ccccc2n3C)CC1,0.92
20,Cn1nnc2c(C(N)=O)ncn2c1=O,21.1
21,NC(=O)c1c(OCc2c(F)cc(Br)cc2F)nsc1NC(=O)NCCCCN1CCCC1,> 120
22,Clc1cccc(C(c2ccc3nc[nH]c3c2)n2ccnc2)c1 (stereo not drawn),> 120
23,CN1CCN(C(=O)Cc2cccn2-c2ccc(F)cc2)CC1,> 120
24,CO[C@@H](Cc1ccc(OCCc2nc(-c3ccccc3)oc2C)c2ccsc12)C(=O)O,72.2
25,CCOc1ccccc1NC(=O)CSc1nc2ccccc2c2nc(CCn3cncc3C)nn12,5.36
26,Nc1cccc(CNC(=O)c2ccc(Oc3ccc(OCc4cccc(F)c4)cc3)nc2)c1,29.7

row,SMILES,half-life [min]
1,C=Cc1ccc(Cn2c(SCC(=O)N3CCN(c4ccc(F)cc4)CC3)nc3ccccc32)cc1,2.42
2,CC1CCN(C(c2ccc(F)cc2)c2ccc(C(C)C(=O)O)cc2-c2ccc(C(F)(F)F)cc2)CC1 (stereo not drawn),115
3,CC(=O)N1CCN(C(=O)Cc2ccc(Nc3ncc(F)c(Nc4ccc(C(=O)Nc5ccccc5Cl)cc4)n3)cc2)CC1,15.6
4,c1ccc(OCc2ccc(CCCN3CCOCC3)cc2)cc1,26.7
5,CCN1CCCC1CNC(=O)c1cc(S(=O)(=O)CC)c(N)cc1OC (stereo not drawn),> 120
6,Cc1ccc(C(=O)c2cc(O)c(O)c([N+](=O)[O-])c2)cc1,34.1
7,CCN1CC(CCN2CCOCC2)C(c2ccccc2)(c2ccccc2)C1=O (stereo not drawn),33.9
8,O=C(CCCCCn1c(=O)c2sccc2n(CC(=O)Nc2cccc(Cl)c2)c1=O)NCc1ccc2c(c1)OCO2,9.36
9,CN1C(C)(C)CCCC1(C)C,> 120
10,OC1(c2ccc(Cl)cc2)c2ccccc2C2=NCCN21 (stereo not drawn),74.4
11,C/C(=C(/OCCOc1ccc(Cl)cc1)c1ccc(Cl)cc1Cl)n1ccnc1,10.1
12,Cc1ccc(-c2c(-c3nn(C)c4ncnc(N5CCC(N6CCCCC6)C5)c34)cnn2C)cc1 (stereo not drawn),> 120
13,CCOC(=O)c1c(C)nn(-c2cccc([N+](=O)[O-])c2)c1C,2.08
14,O=C1N(c2ccccc2)c2ccccc2C1(Cc1ccncc1)Cc1ccncc1,1.71
15,Cc1ccc(S(=O)(=O)NC2CCC(C(C)(C)C)CC2)cc1 (stereo not drawn),3.92
16,CCCn1cc2c(nc(NC(=O)Nc3ccc(OC)cc3)n3nc(-c4ccco4)nc23)n1,> 120
17,CCOc1ccc(NC(=O)Cn2cc(C(=O)c3cccs3)c3ccccc32)cc1,10.5
18,COc1cc2c(C(=O)N(C)c3cccc(C(F)(F)F)c3)cn(CC(C)C)c(=O)c2cc1OC,0.93
19,Cc1ccccc1C(=O)Nc1ccc(C(=O)N2CCCC(O)c3cc(Cl)ccc32)c(C)c1 (stereo not drawn),13.9
20,Cc1cccc(C)c1NC(=O)c1ccccc1C(=O)O,> 120
21,CN1CCCC(CC2c3ccccc3Sc3ccccc32)C1 (stereo not drawn),48.7
22,CCOC(=O)c1ccc(Nc2nc3nonc3nc2Nc2cccc(C)c2C)cc1,10.7
23,COc1cc(C(=S)N2CCOCC2)cc(OC)c1OC,> 120
24,CCOc1cc(CC(=O)N[C@@H](CC(C)C)c2ccccc2N2CCCCC2)ccc1C(=O)O,44.3
25,NC(=NCCCCCCN=C(N)/N=C(\N)Nc1ccc(Cl)cc1)/N=C(\N)Nc1ccc(Cl)cc1,> 120
26,C[C@@H]1O[C@@H](O[C@H]2C[C@@H](O)[C@]3(CO)[C@H]4[C@H](O)C[C@]5(C)[C@@H](C6=CC(=O)OC6)CC[C@]5(O)[C@@H]4CC[C@]3(O)C2)[C@H](O)[C@H](O)[C@H]1O,> 120

row,SMILES,half-life [min]
1,COc1ccc(OC)c([C@H](O)[C@H](C)N)c1,> 120
2,Cn1cc(-c2cnc3ccc4ccc(CS(=O)(=O)NCc5ccccn5)cc4c(=O)c3c2)cn1,17.1
3,CCOc1ccc(-n2c([C@@H](C)N(Cc3cccnc3)C(=O)Cc3ccc(OC(F)(F)F)cc3)nc3ncccc3c2=O)cc1,8.23
4,Cc1cccc(NC(=O)Nc2cccs2)c1C,10.2
5,CCOc1ccc(NC(=O)N2CCN(c3ccc(Cl)c(Cl)c3)CC2)cc1,> 120
6,O=C1CN2CCOC2(c2ccccc2Cl)c2cc(Cl)ccc2N1 (stereo not drawn),4.56
7,COc1cc(Nc2nc3ccccc3nc2NS(=O)(=O)c2ccc(NC(=O)c3ccc(OC)c(C)c3)cc2)cc(OC)c1,> 120
8,Cc1ccc2c(c1)c1c(n2CCc2ccc(C)nc2)CCN(C)C1,8.67
9,NC(=O)N1CCC(CC(=O)N2CCC(C3c4ncc(Br)cc4CCc4cc(Cl)cc(Br)c43)CC2)CC1 (stereo not drawn),5.45
10,NC1=NCC2c3ccccc3Cc3ccccc3N12 (stereo not drawn),> 120
11,Cc1ccc(C(=O)N2CCc3cc(CNS(=O)(=O)c4cccs4)ccc32)cc1,5.17
12,COc1ccc(CC(=O)NCC(c2cccs2)S(=O)(=O)c2ccc(Cl)cc2)cc1 (stereo not drawn),4.19
13,CCc1cccc(CC)c1NC(=O)N1Cc2[nH]nc(NC(=O)c3ccc(N4CCN(C)CC4)cc3)c2C1,> 120
14,c1ccc(-c2csc(N3CCOCC3)n2)cc1,3.95
15,O=C(CSc1nc2ccccc2n1Cc1cccc(Cl)c1)N1CCN(c2ccc(F)cc2)CC1,0.81
16,CC(C)(C)Sc1c(CC(C)(C)C(=O)O)n(Cc2ccc(Cl)cc2)c2ccc(OCc3ccc4ccccc4n3)cc12,34
17,Cc1ccc2c(n1)Oc1ccc(C(C)C(=O)OCC(=O)N(C)C)cc1C2 (stereo not drawn),11.1
18,c1ccc(N2CCN(CCc3nn[nH]n3)CC2)cc1,> 120
19,O=C(N[C@@H]1CC[C@@H](c2cccc(F)c2F)CN(CC(F)(F)F)C1=O)N1CCC(n2c(=O)[nH]c3ncccc32)CC1,60.2
20,CC(C)=CCC1C(=O)N(c2ccccc2)N(c2ccccc2)C1=O,> 120
21,CC1(C)OC[C@H](NC(=O)Nc2ccc(Br)cc2Br)[C@H](c2ccccc2)O1,1
22,COc1cc2ncnc(Nc3ccc(F)c(Cl)c3)c2cc1NC(=O)C=CCN1CCCCC1,> 120
23,Cc1cc(C(C)(C)C)c(O)c(C(C)(C)C)c1,> 120
24,CNC(=O)c1ccc(N2C(=S)N(c3cnc(C#N)c(C(F)(F)F)c3)C(=O)C23CCC3)cc1F,> 120
25,COc1ccccc1N1CCNCC1,> 120
26,C[C@@H](N)[C@@H](O)c1ccccc1,92.4

row,SMILES,half-life [min]
1,CCNP(=S)(OC)O/C(C)=C/C(=O)OC(C)C (stereo not drawn),> 120
2,COC(=O)[C@H](Cc1ccccc1)NC(=O)[C@@H](N)CC(=O)O (H-Asp-Phe-OMe),40.7
3,CCOc1ccc(NS(=O)(=O)c2ccc(N)cc2)nn1,> 120
4,CC(C)(C)c1ccc(S(=O)(=O)c2cnc(SCC(=O)Nc3ccc(F)c(Cl)c3)[nH]c2=O)cc1,73.1
5,CN1CCC(=C2c3ccccc3CCc3cccnc32)CC1,> 120
6,COc1ccc(C(=O)NC(c2ccccc2Cl)c2cc(Cl)c3cccnc3c2O)cc1 (stereo not drawn),37.1
7,CC1=C(CC(=O)O)c2cc(F)ccc2/C1=C\c1ccc(S(C)=O)cc1 (stereo not drawn),> 120
8,O=C(Nc1cccc(-c2nc3ccccc3o2)c1)c1ccccc1Cl,9.1
9,C1N2CN3CN1CN(C2)C3,30.5
10,CN1C2CCC(C)(C)C1CC(OC(=O)C(O)(c1cccs1)c1cccs1)C2 (stereo not drawn),26.5
11,Cc1cc(C)cc(NC(=O)Nc2cccs2)c1,3.55
12,CCCn1ncc(CN2CCCC(C(=O)c3cccc(OC(C)C)c3)C2)c1C (stereo not drawn),8.9
13,Cc1c(N2C(=O)[C@@H]3[C@H](O)CCN3C2=O)ccc(C#N)c1Cl,> 120
14,CC(C)(N)Cc1ccccc1Cl,> 120
15,CCN(CC)C(=O)c1ccc(Nc2nc(OCC3CCCCC3)c3[nH]cnc3n2)cc1,8.96
16,CC(C)CCC(=O)CC1c2ccccc2C(=O)N1c1ccc2ccc(Cl)nc2n1 (stereo not drawn),7.76
17,CCc1cc2cc(OC)c(OC)cc2c(Cc2ccccc2)n1,8.36
18,C[C@@]1(c2cc(-c3cncnc3)c(F)cc2F)CCSC(N)=N1,> 120
19,CCOc1cc(=O)n2c(c1C(=O)Nc1ccc(S(N)(=O)=O)cc1)CCCC2,> 120
20,CC(C)Cc1ccc(CC(=O)O)cc1,> 120
21,CNS(=O)(=O)CCc1ccc2[nH]cc(C3CCN(C)CC3)c2c1,> 120
22,O=[N+]([O-])c1cccc(S(=O)(=O)NCCNS(=O)(=O)c2cccc([N+](=O)[O-])c2)c1,52.3
23,COP(=S)(OC)SCn1nnc2ccccc2c1=O,8.16
24,CC1(C)C(=O)N(c2ccc(C#N)c(C(F)(F)F)c2)C(=S)N1c1ccc(C(N)=O)c(F)c1,> 120
25,CC(=O)N1CCCc2cc(S(=O)(=O)Nc3ccc(OC(F)(F)F)cc3)ccc21,20.9
